{
  "source": "ChEMBL document CHEMBL1149454",
  "about": "“Synthesis and in vitro antitubercular activity of some 1-[(4-sub)phenyl]-3-(4-{1-[(pyridine-4-carbonyl)hydrazono]ethyl}phenyl)thiourea” (Bioorg Med Chem Lett, 2006)",
  "data": [
    {"test_system": "Mycobacterium tuberculosis", "test": "Antibacterial activity against INH-resistant Mycobacterium tuberculosis", "assay_type": "functional", "units": {"MIC": "µM"}, "values": [
      {"smiles": "C/C(=N/NC(=O)c1ccncc1)c1ccc(N/C(S)=N/c2ccccc2)cc1", "MIC": 4},
      {"smiles": "C/C(=N/NC(=O)c1ccncc1)c1ccc(N/C(S)=N/c2ccc(C)cc2)cc1", "MIC": 3.86},
      {"smiles": "C/C(=N/NC(=O)c1ccncc1)c1ccc(N/C(S)=N/c2ccc(F)cc2)cc1", "MIC": 0.49},
      {"smiles": "NNC(=O)c1ccncc1", "note": "[ISONIAZID]", "MIC": 90.9},
      {"smiles": "C/C(=N/NC(=O)c1ccncc1)c1ccc(N/C(S)=N/c2ccc(Br)cc2)cc1", "MIC": 1.66},
      {"smiles": "COc1ccc(N/C(S)=N\\c2ccc(/C(C)=N\\NC(=O)c3ccncc3)cc2)cc1", "MIC": 1.85},
      {"smiles": "CCOc1ccc(N/C(S)=N\\c2ccc(/C(C)=N\\NC(=O)c3ccncc3)cc2)cc1", "MIC": 1.79}
    ]}
  ]
}
